Experimental data published in patent US20240116877A1, “KIT KINASE INHIBITORS AND METHODS OF USE THEREOF” (Deciphera Pharmaceuticals, LLC, priority 2021, published 2024).
Like-named read-outs stand apart in the source and are kept apart here.

Experiments:
GIST 430 cells = test: GIST 430 Cell Proliferation Assay (resazurin); assay type: cell-based; details: Homo sapiens; GIST430 cell proliferation
Outline: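 Five thousand cells per well were exposed to serially diluted compound in complete growth medium for 115 h at 37 degrees Celsius, 5% CO2. Resazurin was then added for a further 5 h, fluorescence read at 540 nm excitation/600 nm emission, and IC50 values calculated.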

c-KIT kinase (uKIT) = c-KIT kinase (uKIT) (Homo sapiens (Human), UniProt P10721); test: Biochemical Assay for uKIT (coupled pyruvate kinase/lactate dehydrogenase assay); details: Inhibition of biochemical activity of uKIT kinase; 1 mM ATP
c-KIT kinase (uKIT), sequence (P10721 other isoform, or with tags, fused parts or gaps): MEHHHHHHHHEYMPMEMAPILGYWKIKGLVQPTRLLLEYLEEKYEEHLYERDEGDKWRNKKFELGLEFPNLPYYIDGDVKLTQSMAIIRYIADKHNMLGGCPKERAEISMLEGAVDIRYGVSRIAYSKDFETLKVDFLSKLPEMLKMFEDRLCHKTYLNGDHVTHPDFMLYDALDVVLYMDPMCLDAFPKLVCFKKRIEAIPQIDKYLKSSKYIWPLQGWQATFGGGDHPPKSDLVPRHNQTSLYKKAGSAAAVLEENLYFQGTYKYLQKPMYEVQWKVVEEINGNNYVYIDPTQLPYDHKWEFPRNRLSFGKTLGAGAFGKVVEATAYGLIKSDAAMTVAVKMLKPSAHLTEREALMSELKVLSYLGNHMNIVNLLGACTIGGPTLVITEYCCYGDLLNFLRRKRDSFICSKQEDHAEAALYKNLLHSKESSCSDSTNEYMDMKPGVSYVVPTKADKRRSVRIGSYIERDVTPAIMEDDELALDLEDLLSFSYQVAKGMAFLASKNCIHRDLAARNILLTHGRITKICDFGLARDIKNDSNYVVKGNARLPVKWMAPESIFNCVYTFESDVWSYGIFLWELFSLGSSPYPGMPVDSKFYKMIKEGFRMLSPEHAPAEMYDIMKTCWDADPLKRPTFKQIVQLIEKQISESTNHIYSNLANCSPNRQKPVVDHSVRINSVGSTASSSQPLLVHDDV
Outline: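 Continuous coupled PK/LDH assay following NADH oxidation at 340 nm for 6 h at 30° C, with 16 nM or 4.36 nM KIT (two constructs), 0.7 mg/mL PE4Y, 1 mM ATP, pH 7.5. Rates from the 2-3 h window converted to percent inhibition versus controls; IC50 fitted.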

Ba/F3 KIT mutant cells = test: Ba/F3 mutant KIT Cell Proliferation Assays (resazurin); assay type: cell-based; details: Mus musculus, BaF3
Outline: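 IC50 values come from resazurin fluorescence (ex 540, em 600) after 5 h dye exposure, added as a 440 μM solution. Cells were IL-3-independent Ba/F3 expressing mutant KIT from a lentiviral vector, puromycin-selected.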

[1] = Ba/F3 KIT AYdup-V654A mutant cell proliferation, read-out: AYdup-V654A IC50
[2] = Ba/F3 KIT exon11del-V654A mutant cell proliferation, read-out: exon11del-V654A IC50
[3] = Ba/F3 KIT exon11del-Y823D mutant cell proliferation, read-out: exon11del-Y823D IC50
[4] = Ba/F3 KIT AYdup mutant cell proliferation, read-out: AYdup IC50
[5] = Ba/F3 KIT AYdup-D816G mutant cell proliferation, read-out: AYdup-D816G IC50

Structure (SMILES)	IC50 (c-KIT kinase (uKIT)) [nM]	IC50 (Ba/F3 KIT mutant cells; [1]) [nM]	IC50 (Ba/F3 KIT mutant cells; [2]) [nM]	IC50 (Ba/F3 KIT mutant cells; [3]) [nM]	IC50 (Ba/F3 KIT mutant cells; [4]) [nM]	IC50 (Ba/F3 KIT mutant cells; [5]) [nM]	IC50 (GIST 430 cells) [nM]
COCCOc1cc(F)c2c(Nc3ccc(NC(=O)COCC4CC4)cc3)ncnc2c1 [Example 57]	100 to 1000	100 to 1000	10 to 100	> 1000	–	–	10 to 100
COCCOc1cc(F)c2c(Nc3ccc(NC(=O)CCC4CCN(C)CC4)cc3)ncnc2c1 [Example 62]	> 1000	100 to 1000	100 to 1000	–	–	–	> 1000
COCCOc1cc(F)c2c(Nc3ccc(NC(=O)NCCC(C)(C)C#N)cc3F)ncnc2c1 [Example 70]	> 1000	100 to 1000	100 to 1000	100 to 1000	–	–	> 1000
COCCOc1cc(F)c2c(Nc3ccc(NC(=O)C4(C(=O)N(C)CC(C)C)CC4)cc3)ncnc2c1 [Example 72]	> 1000	> 1000	100 to 1000	–	–	–	100 to 1000
COCCOc1cc(F)c2c(Nc3ccc(NC(=O)CC(=O)N(C)C(C)C)cc3)ncnc2c1 [Example 74]	10 to 100	10 to 100	10 to 100	100 to 1000	–	–	10 to 100
COCCOc1cc(F)c2c(Nc3ccc(NC(=O)C4(C(=O)NCCC(C)(C)F)CC4)cc3)ncnc2c1 [Example 75]	10 to 100	100 to 1000	10 to 100	> 1000	–	–	100 to 1000
COCCOc1cc(F)c2c(Nc3ccc(NC(=O)CNC(=O)CC(C)C)cc3)ncnc2c1 [Example 76]	10 to 100	10 to 100	≤ 10	100 to 1000	–	–	≤ 10
COCCOc1cc(F)c2c(Nc3ccc(NC(=O)CC(=O)NCC4CC4)cc3)ncnc2c1 [Example 77]	10 to 100	10 to 100	≤ 10	100 to 1000	–	–	10 to 100
COCCOc1cc(F)c2c(Nc3ccc(NC(=O)CC(=O)NCC4CCOCC4)cc3)ncnc2c1 [Example 78]	100 to 1000	100 to 1000	10 to 100	> 1000	–	–	100 to 1000
COCCOc1cc(F)c2c(Nc3ccc(NC(=O)CC(=O)NCC4CCCC4)cc3)ncnc2c1 [Example 79]	10 to 100	10 to 100	10 to 100	100 to 1000	–	–	10 to 100
COCCOc1cc(F)c2c(Nc3ccc(NC(=O)CC(=O)NCC(C)C)cc3)ncnc2c1 [Example 81]	10 to 100	10 to 100	10 to 100	> 1000	–	–	10 to 100
COCCOc1cc(F)c2c(Nc3ccc(NC(=O)CC(=O)NCCN(C)C)cc3)ncnc2c1 [Example 83]	> 1000	–	> 1000	–	–	–	> 1000
COCCOc1cc(F)c2c(Nc3ccc(NC(=O)CC(=O)NCCN4CCOCC4)cc3)ncnc2c1 [Example 84]	> 1000	–	100 to 1000	–	–	–	> 1000
COCCOc1cc(F)c2c(Nc3ccc(NC(=O)CC(=O)NCC(C)(C)COC)cc3)ncnc2c1 [Example 86]	10 to 100	10 to 100	10 to 100	> 1000	–	–	10 to 100
COCCOc1cc(F)c2c(Nc3ccc(NC(=O)CC(=O)NCC(C)(C)C(F)(F)F)cc3)ncnc2c1 [Example 88]	10 to 100	10 to 100	≤ 10	10 to 100	≤ 10	≤ 10	≤ 10
COCCOc1cc(F)c2c(Nc3ccc(NC(=O)CC(=O)NCC(C)(C)F)cc3)ncnc2c1 [Example 89]	10 to 100	10 to 100	10 to 100	100 to 1000	–	–	10 to 100

Second part, led by results:

IC50 (c-KIT kinase (uKIT)) [nM]	IC50 (Ba/F3 KIT mutant cells; [1]) [nM]	IC50 (Ba/F3 KIT mutant cells; [2]) [nM]	IC50 (Ba/F3 KIT mutant cells; [3]) [nM]	IC50 (Ba/F3 KIT mutant cells; [4]) [nM]	IC50 (Ba/F3 KIT mutant cells; [5]) [nM]	Structure (SMILES)	IC50 (GIST 430 cells) [nM]
10 to 100	100 to 1000	100 to 1000	> 1000	–	–	COCCOc1cc(F)c2c(Nc3ccc(NC(=O)COCC4CCCO4)cc3)ncnc2c1 (stereo not shown) [Example 58]	10 to 100
10 to 100	100 to 1000	10 to 100	> 1000	–	–	COCCOc1cc(F)c2c(Nc3ccc(NC(=O)COCC4CCOC4)cc3)ncnc2c1 (stereo not shown) [Example 59]	10 to 100
10 to 100	10 to 100	10 to 100	100 to 1000	–	–	COCCOc1cc(F)c2c(Nc3ccc(NC(=O)C(F)(F)C(=O)NCC(C)(C)C)cc3)ncnc2c1 [Example 60]	10 to 100
10 to 100	10 to 100	≤ 10	10 to 100	≤ 10	≤ 10	COCCOc1cc(F)c2c(Nc3ccc(NC(=O)NCCC4CCOCC4)cc3)ncnc2c1 [Example 61]	≤ 10
10 to 100	100 to 1000	10 to 100	> 1000	–	–	COCCOc1cc(F)c2c(Nc3ccc(NC(=O)CCC4CCOCC4)cc3)ncnc2c1 [Example 63]	10 to 100
10 to 100	100 to 1000	10 to 100	100 to 1000	–	–	COCCOc1cc(F)c2c(Nc3ccc(NC(=O)NCCC(C)(C)F)c(F)c3)ncnc2c1 [Example 64]	10 to 100
≤ 10	10 to 100	≤ 10	100 to 1000	–	–	COCCOc1cc(F)c2c(Nc3ccc(NC(=O)NCCC(C)(C)F)cc3F)ncnc2c1 [Example 65]	10 to 100
10 to 100	10 to 100	10 to 100	> 1000	–	–	COCCOc1cc(F)c2c(Nc3ccc(NC(=O)CN(C)C(=O)C(C)C)cc3)ncnc2c1 [Example 66]	10 to 100
10 to 100	100 to 1000	10 to 100	10 to 100	–	–	COCCOc1cc(F)c2c(Nc3ccc(NC(=O)CCC(=O)N(C)C(C)C)cc3)ncnc2c1 [Example 67]	100 to 1000
≤ 10	10 to 100	≤ 10	100 to 1000	–	–	CN(C)CCOc1cc(F)c2c(Nc3ccc(NC(=O)NCCC(C)(C)F)cc3)ncnc2c1 [Example 68]	≤ 10
≤ 10	10 to 100	10 to 100	10 to 100	10 to 100	≤ 10	COCCOc1cc(F)c2c(Nc3ccc(NC(=O)CC4CCC(C)(C)CC4)cc3)ncnc2c1 [Example 69]	≤ 10
10 to 100	100 to 1000	10 to 100	> 1000	–	–	COCCOc1cc(F)c2c(Nc3ccc(NC(=O)C4(C(=O)NCC(C)C)CC4)cc3)ncnc2c1 [Example 71]	100 to 1000
≤ 10	10 to 100	≤ 10	100 to 1000	–	–	COCCOc1cc(F)c2c(Nc3ccc(NC(=O)CC(=O)NCCC(C)(C)C)cc3)ncnc2c1 [Example 82]	10 to 100
≤ 10	10 to 100	≤ 10	100 to 1000	–	–	COCCOc1cc(F)c2c(Nc3ccc(NC(=O)CC(=O)NCC4(C)CC4)cc3)ncnc2c1 [Example 85]	≤ 10
≤ 10	> 1000	≤ 10	100 to 1000	–	–	COCCOc1cc(F)c2c(Nc3ccc(NC(=O)CC(=O)NCC4CCC4)cc3)ncnc2c1 [Example 90]	10 to 100
≤ 10	10 to 100	10 to 100	100 to 1000	–	–	COCCOc1cc(F)c2c(Nc3ccc(NC(=O)CC(=O)NCC4CCCCC4)cc3)ncnc2c1 [Example 91]	10 to 100
